In patent US8772499B2, “TRPV3 modulators” (AbbVie Inc., priority 2011, dated 2014):
Read-outs that look alike come from different tables or passages of the source.

Tests used:
[1] = In vitro rat microsomal stability assay; format: in vitro ADME, rat (Sprague-Dawley); details: Sprague-Dawley, rat, microsomes, 0.5 h, 0.5 μM, pH 7.4
Procedure: (§1) Test compounds were evaluated for metabolic stability in an in vitro rat microsomal stability assay using rat liver microsomes (Sprague-Dawley, from BD Biosciences) and/or an in vitro human microsomal stability assay using human liver microsomes (Xenotech). […] Incubations were carried out at 37° C. with a final incubation volume of 135 μL. […] A 1.5 μL aliquot of reduced nicotine adenine disphosphonucleotide (NADPH) (Chem-Impex Int'L Inc., Lot 12532024) was also added to the time-zero plates.

[2] = In vitro human microsomal stability assay; format: in vitro ADME; details: human, microsomes, 0.5 h, 0.5 μM, pH 7.4
Procedure: as §1

human TRPV3 = target: T1, human TRPV3 (Homo sapiens, UniProt Q8NET8); assay: In vitro antagonism of recombinant human TRPV3 activation (FLIPR Tetra calcium assay); format: cell-based; details: HEK293 cells stably expressing human TRPV3, agonist 2-APB at 80 μM
T1 construct: expressed in transfected cells
T1 sequence (Q8NET8 1-790): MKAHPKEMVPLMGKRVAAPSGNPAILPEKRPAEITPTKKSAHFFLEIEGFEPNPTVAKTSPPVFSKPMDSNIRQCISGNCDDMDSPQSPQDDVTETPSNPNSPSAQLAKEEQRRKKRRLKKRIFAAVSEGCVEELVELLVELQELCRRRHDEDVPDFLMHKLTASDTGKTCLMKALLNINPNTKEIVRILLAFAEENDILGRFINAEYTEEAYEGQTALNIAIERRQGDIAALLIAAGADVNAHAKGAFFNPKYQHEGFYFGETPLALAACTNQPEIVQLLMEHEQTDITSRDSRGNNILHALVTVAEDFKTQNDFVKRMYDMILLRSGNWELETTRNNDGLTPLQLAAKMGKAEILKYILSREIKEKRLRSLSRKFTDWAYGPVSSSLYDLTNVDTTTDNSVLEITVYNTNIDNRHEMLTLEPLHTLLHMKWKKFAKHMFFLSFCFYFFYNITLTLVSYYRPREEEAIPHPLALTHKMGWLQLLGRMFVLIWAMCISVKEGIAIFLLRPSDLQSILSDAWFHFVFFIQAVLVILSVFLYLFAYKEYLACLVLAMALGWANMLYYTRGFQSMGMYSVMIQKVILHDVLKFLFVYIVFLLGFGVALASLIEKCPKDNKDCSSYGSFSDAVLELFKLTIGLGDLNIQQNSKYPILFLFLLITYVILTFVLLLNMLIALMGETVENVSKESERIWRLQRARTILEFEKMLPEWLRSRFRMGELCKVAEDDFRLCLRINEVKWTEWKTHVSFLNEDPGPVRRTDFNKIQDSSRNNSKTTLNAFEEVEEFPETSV
Summary of the method: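 HEK293 cells stably expressing human TRPV3, loaded with Calcium-4 dye for 90–120 min, received compound in DPBS, then 80 μM 2-APB (EC80) 3 min later. Max-minus-min fluorescence expressed as % of 2-APB response without antagonist; IC50 values mostly averages of n≥2 runs.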

[3] = actual measured value shown parenthetically, in most cases average of at least two runs, read-out: IC50
[4] = reported range, read-out: IC50 (range class)

Row | Compound | RAT MICROSOMAL STABILITY (% REMAINING AFTER 30 MINUTES) [1] [%] | HUMAN MICROSOMAL STABILITY (% REMAINING AFTER 30 MINUTES) [2] [%] | IC50 (human TRPV3; [3]) [µM] | IC50 (human TRPV3; [4]) [µM]
1 | O=C1CC(c2ccc(C(F)(F)F)cc2)([C@H](O)c2ccccn2)C1 (single isomer, unassigned) [Example 164] | 81 | 71 | 2.61 | –
2 | O=C1CC(c2ccc(C(F)(F)F)cc2)([C@@H](O)c2ccccn2)C1 (single isomer, unassigned) [Example 165] | 77 | 83 | 16.6 | –
3 | OC(C1CCCc2cccnc21)C1(c2ccc(F)c(F)c2)CCC1 (single isomer, unassigned) [Example 169, (anti)-[1-(3,4-difluorophenyl)cyclobutyl][5,6,7,8-tetrahydroquinolin-8-yl]-methanol] | <0.01 | <0.01 | 5.82 | –
4 | OC(C1CCCc2cccnc21)C1(c2ccc(F)c(F)c2)CCC1 (single isomer, unassigned) [Example 170, (syn)-[1-(3,4-difluorophenyl)cyclobutyl][5,6,7,8-tetrahydroquinolin-8-yl]-methanol] | <0.01 | <0.01 | > 20 | > 20
5 | OC(C1CCCc2cccnc21)C1(c2ccc(OC(F)(F)F)cc2)CCC1 (single isomer, unassigned) [Example 177, (anti)-5,6,7,8-tetrahydroquinolin-8-yl{1-[4-(trifluoromethoxy)phenyl]-cyclobutyl}methanol] | <0.01 | 0.12 | 3.38 | –
6 | OC(C1CCCc2cccnc21)C1(c2ccc(OC(F)(F)F)cc2)CCC1 (single isomer, unassigned) [Example 178, (syn)-5,6,7,8-tetrahydroquinolin-8-yl{1-[4-(trifluoromethoxy)phenyl]-cyclobutyl}methanol] | <0.01 | 9.2 | > 20 | > 20
7 | OC(C1CCCc2cccnc21)C1(c2cccc(C(F)(F)F)c2)CCC1 (single isomer, unassigned) [Example 179, (anti)-5,6,7,8-tetrahydroquinolin-8-yl{1-[3-(trifluoromethyl)phenyl]-cyclobutyl}methanol] | <0.01 | <0.01 | 2.95 | –
8 | OC(C1CCCc2cccnc21)C1(c2cccc(C(F)(F)F)c2)CCC1 (single isomer, unassigned) [Example 180, (syn)-5,6,7,8-tetrahydroquinolin-8-yl{1-[3-(trifluoromethyl)phenyl]-cyclobutyl}methanol] | <0.01 | <0.01 | > 20 | > 20
9 | OC(C1CCCc2cccnc21)C1(c2ccc(Cl)c(Cl)c2)CCC1 (single isomer, unassigned) [Example 181, (anti)-[1-(3,4-dichlorophenyl)cyclobutyl][5,6,7,8-tetrahydroquinolin-8-yl]-methanol] | <0.01 | <0.01 | 1.98 | –
10 | OC(C1CCCc2cccnc21)C1(c2ccc(Cl)c(Cl)c2)CCC1 (single isomer, unassigned) [Example 182, (syn)-[1-(3,4-dichlorophenyl)cyclobutyl][5,6,7,8-tetrahydroquinolin-8-yl]-methanol] | <0.01 | <0.01 | > 20 | > 20
11 | OC(C1CCCc2cccnc21)C1(c2ccc(C(F)(F)F)cc2)CCC1 (single isomer, unassigned) [Example 183, (anti)-5,6,7,8-tetrahydroquinolin-8-yl{1-[4-(trifluoromethyl)phenyl]-cyclobutyl}methanol] | <0.01 | <0.01 | 1.4 | –
12 | OC(C1CCCc2cccnc21)C1(c2ccc(C(F)(F)F)cc2)CCC1 (single isomer, unassigned) [Example 184, (syn)-5,6,7,8-tetrahydroquinolin-8-yl{1-[4-(trifluoromethyl)phenyl]-cyclobutyl}methanol] | <0.01 | 0.46 | > 20 | > 20
13 | CC1(O)CC(c2ccc(OC(F)(F)F)cc2)(C(O)c2ccccn2)C1 (single isomer, unassigned) [Example 203] | 74 | >85 | 13.8 | –
14 | CC1(O)CC(c2ccc(C(F)(F)F)cc2)(C(O)c2ccccn2)C1 (single isomer, unassigned) [Example 233] | 67 | >85 | 10.8 | –
15 | O=C1CC(c2cccc(C(F)(F)F)c2)([C@H](O)c2ccccn2)C1 (single isomer, unassigned) [Example 241] | 59 | 66 | 1.67 | –
16 | O=C1CC(c2cccc(C(F)(F)F)c2)([C@@H](O)c2ccccn2)C1 (single isomer, unassigned) [Example 243] | 55 | 64 | 18.5 | –
17 | CC1(O)CC(c2cccc(C(F)(F)F)c2)(C(O)c2ccccn2)C1 (single isomer, unassigned) [Example 244] | 77 | 80 | 3.6 | –

The remaining lines, values ahead:

Row | RAT MICROSOMAL STABILITY (% REMAINING AFTER 30 MINUTES) [1] [%] | HUMAN MICROSOMAL STABILITY (% REMAINING AFTER 30 MINUTES) [2] [%] | IC50 (human TRPV3; [3]) [µM] | IC50 (human TRPV3; [4]) [µM] | Compound
18 | >85 | 62 | 4.31 | – | OC1CC(c2ccc(Cl)c(Cl)c2)(C(O)c2ccccn2)C1 (single isomer, unassigned) [Example 247]
19 | 55 | 44 | 2.24 | – | O=C1CC(c2cccc(OC(F)(F)F)c2)([C@H](O)c2ccccn2)C1 (single isomer, unassigned) [Example 256]
20 | 57 | 42 | 9.51 | – | O=C1CC(c2cccc(OC(F)(F)F)c2)([C@@H](O)c2ccccn2)C1 (single isomer, unassigned) [Example 257]
21 | 82 | 66 | 2.13 | – | O=C1CC(c2ccc(F)c(Cl)c2)([C@H](O)c2ccccn2)C1 (single isomer, unassigned) [Example 268]
22 | 48 | 54 | 0.19 | – | OC1CC(c2cccc(OC(F)(F)F)c2)(C(O)c2ccccn2)C1 (single isomer, unassigned) [Example 272]
23 | 65 | 42 | 0.09 | – | OC1CC(c2cccc(OC(F)(F)F)c2)(C(O)c2ccccn2)C1 (single isomer, unassigned) [Example 273]
24 | >85 | 73 | 8.23 | – | CC1(O)CC(c2ccnc(C(F)(F)F)c2)(C(O)c2ccccn2)C1 (single isomer, unassigned) [Example 307]
25 | 13 | 41 | 1 | – | CC1(O)CC(c2cncc(C(F)(F)F)c2)(C(O)c2ccccn2)C1 (single isomer, unassigned) [Example 308]
26 | >85 | >85 | 1.96 | – | OC1CC(c2ccc(Cl)c(Cl)c2)(C(O)c2ncccn2)C1 (single isomer, unassigned) [Example 312]
